Measured values from patent publication US5061794A, “Cephalosporin derivatives, and antibacterial agents” (priority 1986, dated 1991).
≈ marks a conversion by molar mass, not a printed value. Like-named read-outs stand apart in the source and are kept apart here.

What was measured:
Ps. cepacia 23 = experiment: in vitro antibacterial activity, agar plate dilution method (MIC); format: cell-based, Pseudomonas cepacia; conditions: Burkholderia cepacia, 16 h; Ps. cepacia 23; 10^6 CFU/ml; read-out: Minimum Inhibitory Concentration (MIC)
In short: (§1)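 Overnight Mueller Hinton broth cultures were inoculated onto Mueller Hinton agar containing serial antibiotic concentrations at 10^6 CFU/ml. Plates were incubated at 37° C. for 16 hours, and MIC (μg/ml) was recorded.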

Ps. aeruginosa IF03445 = experiment: as above; format: cell-based, Pseudomonas aeruginosa; conditions: Pseudomonas aeruginosa, IF03445, 16 h, read-out: Minimum Inhibitory Concentration (MIC), Ps. aeruginosa IF03445; 10^6 CFU/ml
In short: as §1

Ps. aeruginosa AKR17 = experiment: as above; format: cell-based, Pseudomonas aeruginosa; conditions: Pseudomonas aeruginosa
In short: as §1

Ps. aeruginosa AK 109 = experiment: as above; format: cell-based, Pseudomonas aeruginosa; conditions: Pseudomonas aeruginosa, AK109, 16 h
In short: as §1

E. coli CSH(RE45) = experiment: microbe, parasite or virus in culture; format: cell-based; conditions: Escherichia coli, 16 h, read-out: Minimum Inhibitory Concentration (MIC), *E. coli CSH(RE45), lactamase-producing strain; 10^6 CFU/ml
In short: as §1

E. coli CSH2 (RK1) = experiment: microbe, parasite or virus in culture; format: cell-based; conditions: Escherichia coli, 16 h, read-out: Minimum Inhibitory Concentration (MIC), *E. coli CSH2 (RK1), lactamase-producing strain; 10^6 CFU/ml
In short: as §1

A. calcoaceticus No. 4 = experiment: in vitro antibacterial activity, agar plate dilution method (MIC); format: cell-based, Acinetobacter calcoaceticus; conditions: Acinetobacter calcoaceticus, NO.4, 16 h, 10^6 CFU/ml
In short: as §1

E. cloacae Nek 39 = experiment: as above; format: cell-based; conditions: Enterobacter cloacae, NEK39, 16 h, read-out: Minimum Inhibitory Concentration (MIC), *E. cloacae Nek 39, lactamase-producing strain; 10^6 CFU/ml
In short: as §1

E. coli GN5482 = experiment: as above; format: cell-based; conditions: Escherichia coli, GN5482, 16 h
In short: as §1

E. coli NIHJ JC2 = experiment: as above; format: cell-based; conditions: Escherichia coli, NIHJJC2, 16 h, read-out: Minimum Inhibitory Concentration (MIC), E. coli NIHJ JC2, 10^6 CFU/ml, 37° C.
In short: as §1

K. oxytoca GN10650 = experiment: as above; format: cell-based; conditions: Klebsiella oxytoca, 10^6 CFU/ml
In short: as §1

S. marcescens IAM 1184 = experiment: as above; format: cell-based; conditions: Serratia marcescens, IAM1184, 16 h, S. marcescens IAM 1184; 10^6 CFU/ml; read-out: Minimum Inhibitory Concentration (MIC)
In short: as §1

S. marcescens No. 16-2 = experiment: as above; format: cell-based; conditions: Serratia marcescens, NO.162, 16 h, 10^6 CFU/ml
In short: as §1

S. aureus 209P NIHJ-JC1 = experiment: as above; format: cell-based; conditions: Staphylococcus aureus, 16 h
In short: as §1

K. pneumoniae No. 42 = experiment: as above; format: cell-based; conditions: Klebsiella pneumoniae, 10^6 CFU/ml
In short: as §1

M. morganii GN5407 = experiment: as above; format: cell-based; conditions: Morganella morganii, GN5407, 16 h, read-out: Minimum Inhibitory Concentration (MIC), *M. morganii GN5407, lactamase-producing strain; 10^6 CFU/ml
In short: as §1

E. cloacae 963 = experiment: as above; format: cell-based; conditions: Enterobacter cloacae, 963, 16 h, read-out: Minimum Inhibitory Concentration (MIC), E. cloacae 963; 10^6 CFU/ml
In short: as §1

P. vulgaris HX-19 = experiment: as above; format: cell-based; conditions: Proteus vulgaris, HX19, 16 h, P. vulgaris HX-19; 10^6 CFU/ml; read-out: Minimum Inhibitory Concentration (MIC)
In short: as §1

K. pneumoniae PCI-602 = experiment: as above; format: cell-based; conditions: Klebsiella pneumoniae, PCI602, 16 h, read-out: Minimum Inhibitory Concentration (MIC), K. pneumoniae PCI-602; 10^6 CFU/ml
In short: as §1

P. vulgaris No. 33 = experiment: as above; format: cell-based; conditions: Proteus vulgaris, NO.33, 16 h, read-out: Minimum Inhibitory Concentration (MIC), *P. vulgaris No. 33, lactamase-producing strain; 10^6 CFU/ml
In short: as §1

[1] = 16 h, Ps. aeruginosa AKR17, 10^6 CFU/ml, read-out: Minimum Inhibitory Concentration (MIC)
[2] = Ps. aeruginosa AK 109, 10^6 CFU/ml, read-out: Minimum Inhibitory Concentration (MIC)
[3] = read-out: Minimum Inhibitory Concentration (MIC), A. calcoaceticus No. 4
[4] = read-out: Minimum Inhibitory Concentration (MIC)
[5] = GN10650, 16 h, read-out: Minimum Inhibitory Concentration (MIC), *K. oxytoca GN10650, lactamase-producing strain
[6] = read-out: Minimum Inhibitory Concentration (MIC), S. aureus 209P NIHJ-JC1, 10^6 CFU/ml, 37° C., 16 hours
[7] = NO.42, 16 h, read-out: Minimum Inhibitory Concentration (MIC), *K. pneumoniae No. 42, lactamase-producing strain
[8] = A. calcoaceticus No. 4, read-out: Minimum Inhibitory Concentration (MIC)
[9] = read-out: Minimum Inhibitory Concentration (MIC), *E. coli GN5482, lactamase-producing strain, 10^6 CFU/ml
[10] = read-out: Minimum Inhibitory Concentration (MIC), *S. marcescens No. 16-2, lactamase-producing strain
[11] = read-out: Minimum Inhibitory Concentration (MIC), Ps. aeruginosa AK 109, 10^6 CFU/ml

Row | SMILES | MIC (Ps. cepacia 23) | MIC (Ps. aeruginosa IF03445) | MIC (Ps. aeruginosa AKR17; [1]) | MIC (Ps. aeruginosa AK 109; [2]) | MIC (E. coli CSH(RE45)) | MIC (E. coli CSH2 (RK1)) | MIC (E. cloacae Nek 39) | MIC (E. coli NIHJ JC2) | MIC (K. oxytoca GN10650; [5]) | MIC (S. marcescens IAM 1184) | MIC (S. aureus 209P NIHJ-JC1; [6]) | MIC (K. pneumoniae No. 42; [7]) | MIC (M. morganii GN5407) | MIC (E. cloacae 963) | MIC (P. vulgaris HX-19) | MIC (K. pneumoniae PCI-602) | MIC (P. vulgaris No. 33) | MIC (A. calcoaceticus No. 4; [8]) | MIC (E. coli GN5482; [9]) | MIC (S. marcescens No. 16-2; [10]) | also measured
1 | Nc1nc(/C(=N/OCc2ccc(O)c(O)c2)C(=O)N[C@@H]2C(=O)N3C(C(=O)O)=C(CSc4nnc(-c5ccc(O)c(O)c5)o4)CS[C@H]23)cs1 [Ex. 14, sodium 7β-[2-(2-aminothiazol-4-yl)-2-(3,4-dihydroxybenzyloxyimino)acetamido]-3-[5-(3,4-dihydroxyphenyl)-1,3,4-oxadiazol-2-yl]thiomethyl-3-cephem-4-carboxylate] | 0.1 µg/mL | 12.5 µg/mL | > 100 µg/mL | 100 µg/mL | 3.12 µg/mL | 0.05 µg/mL | 1.56 µg/mL | 0.39 µg/mL | 6.25 µg/mL | 0.1 µg/mL | 1.56 µg/mL | 0.39 µg/mL | 0.1 µg/mL | 0.39 µg/mL | 0.05 µg/mL | < 0.006 µg/mL | 0.2 µg/mL | – | – | – | MIC (A. calcoaceticus No. 4; [3]): 0.39 µg/mL; MIC (E. coli GN5482; [4]): 3.12 µg/mL; MIC (S. marcescens No. 16-2; *S. marcescens No. 16-2, lactamase-producing strain, read-out: Minimum Inhibitory Concentration (MIC)): 25 µg/mL
2 | Nc1nc(/C(=N/OC(C(=O)O)c2ccccc2)C(=O)N[C@@H]2C(=O)N3C(C(=O)O)=C(CSc4nnc(-c5ccc(O)c(O)c5)o4)CS[C@H]23)cs1 (stereo partly drawn) [Ex. 15, disodium 7δ-[2-(2-aminothiazol-4-yl)-2-(α-carboxylatebenzyloxyimino)acetamido]-3-[5-(3,4-dihydroxyphenyl)-1,3,4-oxadiazol-2-yl]thiomethyl-3-cephem-4-carboxylate] | < 0.006 µg/mL | 0.78 µg/mL | – | – | 3.12 µg/mL | < 0.006 µg/mL | 0.05 µg/mL | 0.1 µg/mL | 0.0125 µg/mL | 0.025 µg/mL | – | 0.05 µg/mL | 0.05 µg/mL | 0.025 µg/mL | < 0.006 µg/mL | < 0.006 µg/mL | 0.0125 µg/mL | 0.05 µg/mL | 1.56 µg/mL | 0.78 µg/mL | MIC (Ps. aeruginosa AKR17; AKR17, 16 h, read-out: Minimum Inhibitory Concentration (MIC), Ps. aeruginosa AKR17, 10^6 CFU/ml): 0.78 µg/mL; MIC (Ps. aeruginosa AK 109; [4]): 0.39 µg/mL; MIC (S. aureus 209P NIHJ-JC1; [4]): 12.5 µg/mL
3 | Nc1nc(/C(=N/Oc2ccccc2)C(=O)N[C@@H]2C(=O)N3C(C(=O)O)=C(CSc4nnc(-c5ccc(O)c(O)c5)o4)CS[C@H]23)cs1 [Ex. 22, sodium 7β-[2-(2-aminothiazol-4-yl)2phenoxyiminoacetamido]-3-[5-(3,4-dihydroxyphenyl)-1,3,4-oxadiazol-2-yl]thiomethyl-3-cephem-4-carboxylate] | 0.025 µg/mL | 1.56 µg/mL | > 100 µg/mL | – | < 0.006 µg/mL | 0.0125 µg/mL | 0.05 µg/mL | 0.39 µg/mL | – | 0.05 µg/mL | 0.78 µg/mL | 0.0125 µg/mL | 0.0125 µg/mL | 0.025 µg/mL | < 0.006 µg/mL | < 0.006 µg/mL | 0.025 µg/mL | 0.2 µg/mL | 0.78 µg/mL | 0.78 µg/mL | MIC (Ps. aeruginosa AK 109; [11]): 1.56 µg/mL; MIC (K. oxytoca GN10650; 16 h, *K. oxytoca GN10650, lactamase-producing strain, read-out: Minimum Inhibitory Concentration (MIC)): 100 µg/mL
4 | Nc1nc(/C(=N/OCc2ccccc2CC(=O)O)C(=O)N[C@@H]2C(=O)N3C(C(=O)O)=C(CSc4nnc(-c5ccc(O)c(O)c5)o4)CS[C@H]23)cs1 [Ex. 23] | < 0.006 µg/mL | 0.39 µg/mL (≈ 0.527 µM) | – | 0.1 µg/mL (≈ 0.135 µM) | < 0.006 µg/mL | < 0.006 µg/mL | 0.1 µg/mL (≈ 0.135 µM) | 0.2 µg/mL (≈ 0.27 µM) | 0.1 µg/mL (≈ 0.135 µM) | 0.025 µg/mL (≈ 0.0338 µM) | 6.25 µg/mL (≈ 8.45 µM) | – | 0.025 µg/mL (≈ 0.0338 µM) | 0.025 µg/mL (≈ 0.0338 µM) | < 0.006 µg/mL | < 0.006 µg/mL | 0.0125 µg/mL (≈ 0.0169 µM) | – | 0.78 µg/mL (≈ 1.05 µM) | 1.56 µg/mL (≈ 2.11 µM) | MIC (Ps. aeruginosa AKR17; AKR17, 16 h, read-out: Minimum Inhibitory Concentration (MIC)): 12.5 µg/mL (≈ 16.9 µM); MIC (A. calcoaceticus No. 4; [3]): 0.1 µg/mL (≈ 0.135 µM); MIC (K. pneumoniae No. 42; 16 h, *K. pneumoniae No. 42, lactamase-producing strain, read-out: Minimum Inhibitory Concentration (MIC)): < 0.006 µg/mL
5 | CO/N=C(\C(=O)N[C@@H]1C(=O)N2C(C(=O)O)=C(CSc3nnc(-c4ccc(O)c(O)c4)s3)CS[C@H]12)c1csc(N)n1 [Ex. 25, sodium 7β-[2-(2-aminothiazol-4-yl)-2-methoxviminoacetamido]-3-[5-(3,4-dihydroxyphenyl)-1,3,4-thiadiazol-2-yl]thiomethyl-3-cephem-4-carboxylate] | < 0.006 µg/mL | 0.78 µg/mL | 100 µg/mL | – | 0.025 µg/mL | < 0.006 µg/mL | 0.39 µg/mL | 0.2 µg/mL | 0.78 µg/mL | 0.0125 µg/mL | 0.78 µg/mL | 0.0125 µg/mL | 0.025 µg/mL | 0.025 µg/mL | < 0.006 µg/mL | < 0.006 µg/mL | 0.025 µg/mL | 0.2 µg/mL | 0.78 µg/mL | 1.56 µg/mL | MIC (Ps. aeruginosa AK 109; [11]): 0.78 µg/mL
